Measurements: patent publication US12465791B2, “Oral care composition” (Colgate-Palmolive Company, priority 2014, dated 2025)

Columns and labels:
[1] = system: Human keratinocytes; experiment: Gap closure after scratch, migration of human keratinocytes; assay type: cell-based; details: 100 ppm Arginine in DMEM
Method: Human keratinocytes are cultured in DMEM medium supplemented with 10% FBS and 1% of antibiotic at 37° C. under a 5% CO2 atmosphere in petri dishes. Once the cells are 80-90% confluent, a scratch is made horizontally and a scratch is made vertically across the layer of cells. 1 ml of a test solution is added to the culture, and the cells are further incubated and monitored by photomicroscopy to evaluate the closure of the gap created by the scratches. The test solutions compared are 100 ppm Arginine in DMEM medium and untreated DMEM medium. The results are shown in Table 3 below, expressed as the average width of the gap as a percentage of the initial width of the gap (at 0 hours).
A second gap closure experiment is also performed which compares the results obtained when 100 ppm Arginine in DMEM is used against 1:500 v/v dilutions of commercial mouthwash formulations. In one test, a 0.8% w/v arginine mouthwash formulation is used. In a second test, a 0.075% w/v cetylpyridinium chloride (CPC) mouthwash formulation is used as a negative control. CPC is common antibacterial agent and preservative used in oral care products.

[2] = system: HSP 27; experiment: HSP 27 production in scratched (damaged) human gingival tissue, level in cell supernatant; assay type: cell-based; details: for HSP27 concentration: scratched gingival tissue, arginine 50 ppm in culture medium, 37° C.
Method: A scratching protocol was used to damage and stress human gingival tissue (MatTek Corporation). Arginine, at a dose of 50 ppm was applied to the culture medium containing the tissue. The treated tissue was incubated at 37° C. to promote tissue healing. Cell supernatant was collected at various time points and the level of HSP 27 was measured.

[3] = system: HSP-27; experiment: Intracellular HSP 27 expression in scratched keratinocytes (ELISA); assay type: cell-based, human; details: for HSP-27, intracellular: scratched keratinocytes, 50 ppm Arginine
Method: Human keratinocytes are cultured in DMEM medium supplemented with 10% FBS and 1% of antibiotic at 37° C. under a 5% CO2 atmosphere in petri dishes. Once the cells are 80-90% confluent, a scratch is made horizontally and a scratch is made vertically across the layer of cells. […] […] The cell suspension is then homogenized with metal beads for 5 minutes and then analyzed for HSP27 using ELISA. In both untreated and arginine treated cells, scratching induces a strong increase in intracellular HSP-27 expression at one hour which declines at 4 hours. […] Without being bound by theory, Applicants believe that it is this initial burst of HSP-27 expression at the time of physical injury that contributes to improved wound healing.

With `N=C(N)NCCCC(N)C(=O)O` (stereo not shown) [Arginine, 2-amino-5-guanidinopentanoic acid] the “speed of gap closure compared to the DMEM control” value [1] was “significantly faster”, the “% Gap Closure” value ([1]; 24 hr after scratch) was 21% and the “% Gap Closure” value ([1]; 48 hr after scratch) was 63%. For the same molecule, the “% Gap Closure” value ([1]; 144 hr after scratch) was 100%, the “% Gap Closure” value ([1]; second experiment, 48 hr) was 75% and the “production of HSP 27 compared to the untreated, scratched tissue” value ([2]; arginine 50 ppm, at 1 hour and at 4 hours) was “significantly accelerated”. It also gave an HSP27 concentration ([2]; incubation time 0 hr) of 22.78 ng/mL, an HSP27 concentration ([2]; incubation time 1 hr) of 218.76 ng/mL and an HSP27 concentration ([2]; incubation time 4 hr) of 359.72 ng/mL. For the same molecule, the “intracellular HSP-27 expression compared to untreated scratched cells” value ([3]; 50 ppm arginine) was “significantly higher expression”, the “HSP-27, intracellular” value ([3]; time 0 hr) was 17.11 ng/mL and the “HSP-27, intracellular” value ([3]; time 1 hr) was 64.04 ng/mL. For the same molecule, the “HSP-27, intracellular” value ([3]; time 2 hr as printed in the table) was 45.12 ng/mL.
